The IC50 is the concentration that gives 50% inhibition. Read a low IC50 as inhibition by little substance.

Results on 33 compounds are retold here after patent publication US7381749B2, “Sulfonamides as inhibitors of histone deacetylase for the treatment of disease” (Kalypsys, Inc., priority 2004, dated 2008).

Structures are written as SMILES.

The test system of experiment [1] is HDAC in cells. The experiment is described as follows: Cellular IC50 (cellular assays: histone hyperacetylation cytoblot / differential cytotoxicity). It counts as cell-based. The settings on record: transformed cell lines (e.g. HeLa, A549, MCF-7); cell line not specified. The procedure: These two secondary assays evaluates a compound's ability to inhibit HDAC in cells by measuring cellular histone acetylation levels. The cytoblot facilitates quantitative EC50 information for cellular HDAC inhibition. Transformed cell lines (e.g. HeLa, A549, MCF-7) are cultured under standard media and culture conditions prior to plating.
Cells (approx. 2,500/well) are allowed to adhere 10-24 hours to wells of a 384-well Greiner PS assay plate in media containing 1-5% serum. Cells are treated with appropriate compound and specific concentrations for 0 to 24 hours. Cells are washed once with PBS (60 ul) and then fixed (95% ethanol, 5% acetic acid or 2% PFA) for 1 minute at RT (30 ul). Cells are blocked with 1% BSA for 1 hour and washed and stained with antibody (e.g. anti-Acetylated Histone H3, Upstate Biotechnology), followed by washing and incubation with an appropriate secondary antibody conjugated to HRP or fluorophore. For luminescence assays, signal is generated using Luminol substrate (Santa Cruz Biotechnology) and detected using an Aquest plate reader (Molecular Devices).
Differential Cytotoxicity Assay:
HDAC inhibitors display differential cytotoxicity toward certain transformed cell lines. Cells are cultured according to standard ATCC recommended conditions that are appropriate to each cell type. Compounds were tested for their ability to kill different cell types (normal and transformed) using the ATPlite luminescence ATP detection assay system (Perkin Elmer). Assays are run in either 384-well or 1536-well Greiner PS plates. Cells (30 ul or 5 ul, respectively) are dispensed using either multichannel pipette for 384-well plates, or proprietary Kalypsys bulk liquid dispenser for 1536-well plates. Compounds added using proprietary pin-transfer device (500 nL or 5 nL) and incubated 5 to 30 hours prior to analysis. Luminescence is measured using Aquest plate reader (Molecular Devices).

The test system of experiment [2] is HDAC. The experiment can be described thus: In vitro HDAC-inhibition assay (Fluor de Lys fluorescent substrate). It counts as biochemical. As to conditions: HDAC enzyme source (e.g. partially purified nuclear extract or immunopurified HDAC complexes). The procedure: In vitro HDAC-Inhibition Assay:
This assay measures a compound's ability to inhibit acetyl-lysine deacetylation in vitro and was used as both a primary screening method as well as for IC50 determinations of confirmed inhibitors. The assay is performed in vitro using an HDAC enzyme source (e.g. partially purified nuclear extract or immunopurified HDAC complexes) and a proprietary fluorescent substrate/developer system (HDAC Quantizyme Fluor de Lys Fluorescent Activity Assay, BIOMOL). The assay is run in 1,536-well Greiner white-bottom plates using the following volumes and order of addition: • Step 1: Enzyme (2.5 ul) source added to plate (from refrigerated container) • Step 2: Compounds (50 nl) added with pin transfer device • Step 3: Fluor de Lys (2.5 ul) substrate added, incubate at RT, 30 minutes • Step 4: Developer (5 ul) solution is added (containing TSA), to stop reaction • Step 5: Plate Reader—data collection • The deacetylated fluorophore is excited with 360 nm light and the emitted light (460 nm) is detected on an automated fluorometric plate reader (Aquest, Molecular Devices).

Turning to `O=C(CSC(=O)c1cccnc1)c1ccc(NS(=O)(=O)c2ccc(OC(F)(F)F)cc2)cc1` [Example 02, Thionicotinic acid S-{2-oxo-2-[4-(4-trifluorometlioxy-benzenesulfonylamino)-phenyl]-ethyl}ester], the 50% inhibitory concentration (IC50) in experiment [1] is less than 10000 nM.

In experiment [2], `O=C(CSC(=O)c1ccco1)c1ccc(NS(=O)(=O)c2ccc(OC(F)(F)F)cc2)cc1` [Example 04, Furan-2-carbothioic acid S-{2-oxo-2-[4-(4-trifluoromethoxy-benzenesulfonylamino)-phenyl]-ethyl}ester] yielded an IC50 of less than 1000 nM. `CC(=O)Oc1ccccc1C(=O)SCC(=O)c1ccc(NS(=O)(=O)c2ccc(OC(F)(F)F)cc2)cc1` [Example 06, Acetic acid 2-{2-oxo-2-[4-(4-trifluoromethoxy-benzenesulfonylamino)-phenyl]-ethylsulfanylcarbonyl}-phenyl ester] registered a half-inhibitory concentration (IC50) in experiment [1] of less than 1000 nM. Consider `CN(C)c1ccc(C(=O)SCC(=O)c2ccc(NS(=O)(=O)c3ccc(OC(F)(F)F)cc3)cc2)cc1` [Example 07], for which the IC50 in experiment [1] was less than 10000 nM; in experiment [2], less than 1000 nM. With `COC(=O)SCC(=O)c1ccc(NS(=O)(=O)c2ccc(OC(F)(F)F)cc2)cc1` [Example 08, Thiocarbonic acid O-methyl ester S-{2-oxo-2-[4-(4-trifluoromethoxy-benzenesulfonylamino)-phenyl]-ethyl}ester], the IC50 was less than 1000 nM in experiment [1] and less than 10000 nM in experiment [2]. On the same counts, the results for `O=C(CSC(=O)c1ccccn1)c1ccc(NS(=O)(=O)c2ccc(OC(F)(F)F)cc2)cc1` [Example 09, Pyridine-2-carbothioic acid S-{2-oxo-2-[4-(4-trifluoromethoxy-benzenesulfonylamino)-phenyl]-ethyl}ester] are less than 1000 nM and less than 1000 nM.

In experiment [2], `NCC(=O)SCC(=O)c1ccc(NS(=O)(=O)c2ccc(OC(F)(F)F)cc2)cc1` [Example 11, Amino-thioacetic acid S-{2-oxo-2-[4-(4-trifluoromethoxy-benzenesulfonylamino)-phenyl]-ethyl}ester] registered an IC50 of less than 1000 nM. On to `CC(=O)SCC(=O)c1ccc(N(C)S(=O)(=O)c2ccc(OC(F)(F)F)cc2)cc1` [Example 12, Thioacetic acid S-(2-{4-[methyl-(4-trifluoromethoxy-benzenesulfonyl)-amino]phenyl}-2-oxo-ethyl)ester], for which, in experiment [1], the IC50 is less than 10000 nM. In the case of `CC(=O)SCC(=O)c1ccc(N(C(C)C)S(=O)(=O)c2ccc(OC(F)(F)F)cc2)cc1` [Example 13, Thioacetic acid S-(2-{4-[isopropyl-(4-trifluoromethoxy-benzenesulfonyl)-amino]-phenyl}-2-oxo-ethyl)ester], the IC50 in experiment [2] is less than 10000 nM. Regarding `CC(=O)SCC(=O)c1ccc(NS(=O)(=O)c2ccc(OC(F)(F)F)cc2)cc1Cl` [Example 14, Thioacetic acid S-{2-[2-chloro-4-(4-trifluoromethoxy-benzenesulfonylamino)-phenyl]-2-oxo-ethyl}ester], the half-inhibitory concentration (IC50) in experiment [1] was less than 50000 nM; in experiment [2], less than 1000 nM. `CC(=O)SCC(=O)c1ccc(NS(=O)(=O)c2ccc(OC(F)(F)F)cc2)c(F)c1` [Example 15, Thioacetic acid S-{2-[3-fluoro-4-(4-trifluoromethoxy-benzenesulfonylamino)-phenyl]-2-oxo-ethyl}ester] came in with an IC50 in experiment [2] of less than 1000 nM.

Consider `CC(=O)SCC(=O)c1ccc(NS(=O)(=O)c2ccc(C)cc2)cc1` [Example 16, Thioacetic acid S-{12-oxo-2-[4-(toluene-4-sulfonylamino)-phenyl]-ethyl}ester], for which the IC50 in experiment [1] and in experiment [2] was less than 1000 nM throughout. Turning to `CC(=O)SCC(=O)c1ccc(NS(=O)(=O)c2cccc(C(F)(F)F)c2)cc1` [Example 17, Thioacetic acid S-{2-oxo-2-[4-(3-trifluoromethyl-benzenesulfonylamino)-phenyl]-ethyl}ester], the figures for the concentration for half-maximal inhibition (IC50) in experiment [1] and in experiment [2] were less than 10000 nM and less than 1000 nM, respectively. As to `CC(=O)SCC(=O)c1ccc(NS(=O)(=O)c2ccc(F)cc2C)cc1` [Example 18, Thioacetic acid S-{2-[4-(4-fluoro-2-methyl-benzenesulfonylamino)-phenyl]-2-oxo-ethyl}ester], the IC50 in experiment [1] and in experiment [2] was less than 1000 nM in each case. As for `CC(=O)SCC(=O)c1ccc(NS(=O)(=O)c2ccc(Cl)c(C(F)(F)F)c2)cc1` [Example 20, Thioacetic acid S-{2-[4-(4-chloro-3-trifluoromethyl-benzenesulfonylamino)-phenyl]-2-oxo-ethyl}ester], the IC50 in experiment [1] and in experiment [2] was less than 1000 nM each time. As for `COc1cccc(S(=O)(=O)Nc2ccc(C(=O)CSC(C)=O)cc2)c1` [Example 21, Thioacetic acid S-{2-[4-(3-methoxy-benzenesulfonylamino)-phenyl]-2-oxo-ethyl}ester], the IC50 in experiment [1] and in experiment [2] was less than 1000 nM throughout. Consider `CCS(=O)(=O)Nc1ccc(C(=O)CSC(C)=O)cc1` [Example 22, Thioacetic acid S-[2-(4-ethanesulfonylamino-phenyl)-2-oxo-ethyl]ester], for which the IC50 is less than 10000 nM in experiment [1] and less than 1000 nM in experiment [2]. Take `CC(=O)SCC(=O)c1ccc(NS(=O)(=O)c2cc(C)cc(C)c2)cc1` [Example 23, Thioacetic acid 2-[4-(3,5-dimethyl-benzenesulfonylamino)-phenyl]-2-oxo-ethyl ester]: the 50% inhibitory concentration (IC50) is less than 10000 nM in experiment [1] and less than 1000 nM in experiment [2]. For `CC(=O)SCC(=O)c1ccc(NS(=O)(=O)c2cn(C)c(C)n2)cc1` [Example 24, Thioacetic acid S-{2-[4-(1,2-dimethyl-1H-imidazole-4-sulfonylamino)-phenyl]-2-oxo-ethyl}ester] the same measures were less than 10000 nM and less than 1000 nM.

Take `CC(=O)SCC(=O)c1ccc(NS(=O)(=O)C(C)C)cc1` [Example 25, Thioacetic acid S-{2-oxo-2-[4-(propane-2-sulfonylamino)-phenyl]-ethyl}ester]: the IC50 in experiment [2] is less than 1000 nM. For `COc1ccc(S(=O)(=O)Nc2ccc(C(=O)CSC(C)=O)cc2)cc1OC` [Example 27], the IC50 in experiment [1] and in experiment [2] was less than 1000 nM each time. On to `CC(=O)SCC(=O)c1ccc(NS(=O)(=O)c2ccc(Cl)cc2Cl)cc1` [Example 28], for which the IC50 in experiment [1] and in experiment [2] was less than 1000 nM each time. `CC(=O)SCC(=O)c1ccc(NS(=O)(=O)c2c(C)noc2C)cc1` [Example 29]: the IC50 in experiment [1] is less than 10000 nM; in experiment [2], less than 1000 nM.

For the compound `CC(=O)SCC(=O)c1ccc(NS(=O)(=O)c2sc(C)nc2C)cc1` [Example 30], the IC50 in experiment [1] and in experiment [2] was less than 1000 nM throughout. `CC(=O)SCC(=O)c1ccc(NS(=O)(=O)c2cc(C)oc2C)cc1` [Example 31] came in with a concentration for half-maximal inhibition (IC50) in experiment [1] of less than 10000 nM.

As for `CC(=O)SCC(=O)c1ccc(NS(=O)(=O)c2ccccc2)cc1` [Example 33], the IC50 is less than 10000 nM in experiment [1] and less than 1000 nM in experiment [2]. Take `CC(=O)SCC(=O)c1ccc(NS(=O)(=O)c2ccc(F)cc2)cc1` [Example 34]: the IC50 in experiment [1] and in experiment [2] was less than 1000 nM in each case.

As for `CC(=O)SCC(=O)c1ccc(NS(=O)(=O)c2ccccc2F)cc1` [Example 35], the IC50 in experiment [1] and in experiment [2] was less than 1000 nM each time. As for `CC(=O)SCC(=O)c1ccc(NS(=O)(=O)c2ccc(Cl)cc2)cc1` [Example 36], the IC50 in experiment [1] and in experiment [2] was less than 1000 nM in each case. Turning to `CC(=O)SCC(=O)c1ccc(NS(=O)(=O)c2cccc(Cl)c2)cc1` [Example 37], the IC50 in experiment [1] and in experiment [2] was less than 1000 nM in each case.

For `CC(=O)SCC(=O)c1sc(NS(=O)(=O)c2ccc(OC(F)(F)F)cc2)nc1C` [Example 42], in experiment [2], the IC50 was less than 50000 nM. In experiment [2], `CC(=O)SCC(=O)c1sc(NS(=O)(=O)c2ccc(Cl)c(Cl)c2)nc1C` [Example 43, Thioacetic acid-S-{2-[2-(3,4-Dichlorobenzenesulfonylamino)-4-methyl-thiazol-5-yl]-2-oxo-ethyl}-ester] displayed an IC50 of less than 50000 nM. In turn, `CC(=O)SCC(=O)c1ccc(S(=O)(=O)Nc2ccc(OC(F)(F)F)cc2)cc1` [Example 45, Thioacetic acid S-{2-oxo-2-[4-(4-trifluoromethoxy-phenylsulfamoyl)-phenyl]-ethyl}ester] returned an IC50 in experiment [1] of less than 10000 nM.
